According to US10947225B2, “Phosphotidylinositol 3-kinase inhibitors” (Emory University, priority 2016, dated 2021):
Read-outs that look alike come from different tables or passages of the source.

Tests used:
Assay type in all cases: biochemical
p110alpha = p110alpha (Homo sapiens, UniProt P42336); experiment: PI3K kinase assay (ADP-Glo), p110alpha; conditions: final ATP 25 μM
Procedure: (§1) Summary of PI3K Kinase Assay
Enzyme optimization: After optimization, the following concentrations of Enzyme are used to compound testing: P110alpha 1 μg/ml,
(§2) 1. Prepare 1.25× enzyme/substrate: mix equal volume of 2.5× enzyme (in 2.5× reaction buffer) and 2.5× substrate (final 0.05 mg/ml) (in 2.5× lipid dilution buffer);
(§3) 2. Add 4 μl of 1.25× enzyme/substrate mixture to 384-well low volume white plate;
(§4) 3. Add 0.1 μl of increasing concentrations of compound diluted in DMSO;
(§5) 4. Incubate at r.t. for 30 min;
(§6) 5. Dispense 1 μl of 250 μM ATP diluted in ddH2O. The final ATP was 25 μM;
(§7) 6. Incubate at r.t. for 1 h;
(§8) 7. Add 5 μl of ADP-Glo with 10 mM MgCl2;
(§9) 8. Incubate at r.t. for 40 min;
(§10) 9. Add 10 μl of kinase detection buffer;
(§11) 10. Incubated at r.t. for 30 min; and
(§12) 11. Read luminescence signal using Envision multilabel plate reader.
(§13) The effect of compound on kinase activity is expressed as % of control and calculated as the following equation: % of Control=(Lum compound−Lum blank)/(Lum vehicle control−Lum blank)×100 • * blank is the substrate only without enzyme, which is the background signal control.
(§14) The experiment was repeated twice on different days at triplicates per sample.

p110beta = p110beta (Homo sapiens, UniProt P42338); experiment: PI3K kinase assay (ADP-Glo), p110beta; conditions: final ATP 25 μM
p110beta, sequence (P42338 whole entry): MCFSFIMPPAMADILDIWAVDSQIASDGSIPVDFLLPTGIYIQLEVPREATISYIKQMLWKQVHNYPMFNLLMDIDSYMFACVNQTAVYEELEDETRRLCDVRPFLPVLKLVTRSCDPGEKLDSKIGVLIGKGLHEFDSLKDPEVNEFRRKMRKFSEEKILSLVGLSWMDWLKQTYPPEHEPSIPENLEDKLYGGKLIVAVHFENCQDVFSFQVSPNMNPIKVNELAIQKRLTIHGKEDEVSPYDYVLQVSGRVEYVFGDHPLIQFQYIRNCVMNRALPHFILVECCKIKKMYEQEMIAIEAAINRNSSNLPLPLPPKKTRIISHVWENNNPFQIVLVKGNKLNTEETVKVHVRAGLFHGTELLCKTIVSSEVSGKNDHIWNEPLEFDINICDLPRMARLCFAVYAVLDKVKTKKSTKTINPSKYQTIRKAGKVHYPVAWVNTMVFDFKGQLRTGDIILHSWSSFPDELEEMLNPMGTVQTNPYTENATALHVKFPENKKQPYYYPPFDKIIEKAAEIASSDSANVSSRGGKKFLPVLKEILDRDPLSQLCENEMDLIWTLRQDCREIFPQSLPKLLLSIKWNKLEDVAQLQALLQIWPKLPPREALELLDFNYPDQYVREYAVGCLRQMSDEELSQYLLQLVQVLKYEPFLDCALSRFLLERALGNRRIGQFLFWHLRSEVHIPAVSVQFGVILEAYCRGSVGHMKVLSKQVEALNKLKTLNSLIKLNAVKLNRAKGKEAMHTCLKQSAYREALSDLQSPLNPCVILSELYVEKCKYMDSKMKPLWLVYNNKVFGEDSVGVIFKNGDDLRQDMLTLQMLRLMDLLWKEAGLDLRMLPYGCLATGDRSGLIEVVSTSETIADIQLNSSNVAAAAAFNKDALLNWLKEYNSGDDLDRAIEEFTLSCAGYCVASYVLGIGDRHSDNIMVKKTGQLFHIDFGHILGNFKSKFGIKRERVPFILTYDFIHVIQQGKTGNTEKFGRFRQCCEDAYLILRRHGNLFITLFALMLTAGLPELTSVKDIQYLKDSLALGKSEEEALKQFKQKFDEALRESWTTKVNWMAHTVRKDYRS
p110beta, sequence (P27986 whole entry partner): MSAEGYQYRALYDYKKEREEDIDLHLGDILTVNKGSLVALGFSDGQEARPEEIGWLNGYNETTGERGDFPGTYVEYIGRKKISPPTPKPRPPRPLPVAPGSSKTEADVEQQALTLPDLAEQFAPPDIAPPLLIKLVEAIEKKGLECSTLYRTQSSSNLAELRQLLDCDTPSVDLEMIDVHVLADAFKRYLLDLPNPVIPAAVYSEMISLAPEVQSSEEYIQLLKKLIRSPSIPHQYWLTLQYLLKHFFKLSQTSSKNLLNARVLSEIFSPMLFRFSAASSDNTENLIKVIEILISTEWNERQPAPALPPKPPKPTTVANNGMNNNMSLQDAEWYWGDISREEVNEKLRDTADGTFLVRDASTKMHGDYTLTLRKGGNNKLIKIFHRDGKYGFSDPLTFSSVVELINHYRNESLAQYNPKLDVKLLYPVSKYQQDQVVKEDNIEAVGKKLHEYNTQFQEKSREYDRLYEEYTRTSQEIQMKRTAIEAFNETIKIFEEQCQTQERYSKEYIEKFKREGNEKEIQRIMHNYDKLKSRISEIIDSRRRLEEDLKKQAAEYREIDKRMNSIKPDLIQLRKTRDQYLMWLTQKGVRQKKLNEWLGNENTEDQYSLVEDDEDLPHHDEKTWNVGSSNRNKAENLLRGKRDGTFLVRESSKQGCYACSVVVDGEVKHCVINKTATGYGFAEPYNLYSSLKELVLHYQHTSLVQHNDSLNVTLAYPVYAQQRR
Procedure: as §1, §2, §3, §4, §5, §6, §7, §8, §9, §10, §11, §12, §13, §14

p110delta = p110delta (Homo sapiens, UniProt O00329); experiment: PI3K kinase assay (ADP-Glo), p110delta; conditions: final ATP 25 μM
p110delta, sequence (O00329 whole entry): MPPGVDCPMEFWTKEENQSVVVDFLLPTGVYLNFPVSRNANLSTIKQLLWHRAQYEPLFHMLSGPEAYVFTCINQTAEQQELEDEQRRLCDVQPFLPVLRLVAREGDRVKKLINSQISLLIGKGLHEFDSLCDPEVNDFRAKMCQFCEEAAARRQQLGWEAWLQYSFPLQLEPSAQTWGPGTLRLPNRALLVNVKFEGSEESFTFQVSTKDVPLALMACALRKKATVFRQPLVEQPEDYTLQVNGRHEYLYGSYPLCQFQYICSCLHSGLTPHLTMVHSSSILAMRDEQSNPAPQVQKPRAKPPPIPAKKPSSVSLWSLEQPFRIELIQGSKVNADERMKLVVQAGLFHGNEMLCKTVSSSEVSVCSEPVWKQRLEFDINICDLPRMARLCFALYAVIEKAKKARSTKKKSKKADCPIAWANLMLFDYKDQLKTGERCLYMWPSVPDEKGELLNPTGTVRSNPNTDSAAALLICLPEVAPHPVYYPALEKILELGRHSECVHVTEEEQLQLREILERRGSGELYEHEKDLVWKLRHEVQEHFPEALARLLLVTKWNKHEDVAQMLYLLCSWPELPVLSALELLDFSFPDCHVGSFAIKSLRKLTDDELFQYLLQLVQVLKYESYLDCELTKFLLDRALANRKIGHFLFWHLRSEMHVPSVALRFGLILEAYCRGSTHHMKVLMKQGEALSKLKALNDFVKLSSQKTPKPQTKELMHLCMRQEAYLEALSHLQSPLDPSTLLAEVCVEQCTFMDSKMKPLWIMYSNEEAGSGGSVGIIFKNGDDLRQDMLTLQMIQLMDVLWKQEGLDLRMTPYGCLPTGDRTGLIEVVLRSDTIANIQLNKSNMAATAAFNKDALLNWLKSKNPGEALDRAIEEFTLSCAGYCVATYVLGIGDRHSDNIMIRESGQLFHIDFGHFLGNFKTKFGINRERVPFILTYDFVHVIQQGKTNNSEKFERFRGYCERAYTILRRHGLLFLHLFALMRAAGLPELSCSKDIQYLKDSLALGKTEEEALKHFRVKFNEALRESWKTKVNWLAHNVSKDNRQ
p110delta, sequence (P27986 whole entry partner): as the sequence (P27986 whole entry partner) above
Procedure: as §1, §2, §3, §4, §5, §6, §7, §8, §9, §10, §11, §12, §13, §14

p120gamma = p120gamma (Homo sapiens, UniProt P48736); experiment: PI3K kinase assay (ADP-Glo), p120gamma; conditions: final ATP 25 μM
p120gamma, sequence (P48736 whole entry): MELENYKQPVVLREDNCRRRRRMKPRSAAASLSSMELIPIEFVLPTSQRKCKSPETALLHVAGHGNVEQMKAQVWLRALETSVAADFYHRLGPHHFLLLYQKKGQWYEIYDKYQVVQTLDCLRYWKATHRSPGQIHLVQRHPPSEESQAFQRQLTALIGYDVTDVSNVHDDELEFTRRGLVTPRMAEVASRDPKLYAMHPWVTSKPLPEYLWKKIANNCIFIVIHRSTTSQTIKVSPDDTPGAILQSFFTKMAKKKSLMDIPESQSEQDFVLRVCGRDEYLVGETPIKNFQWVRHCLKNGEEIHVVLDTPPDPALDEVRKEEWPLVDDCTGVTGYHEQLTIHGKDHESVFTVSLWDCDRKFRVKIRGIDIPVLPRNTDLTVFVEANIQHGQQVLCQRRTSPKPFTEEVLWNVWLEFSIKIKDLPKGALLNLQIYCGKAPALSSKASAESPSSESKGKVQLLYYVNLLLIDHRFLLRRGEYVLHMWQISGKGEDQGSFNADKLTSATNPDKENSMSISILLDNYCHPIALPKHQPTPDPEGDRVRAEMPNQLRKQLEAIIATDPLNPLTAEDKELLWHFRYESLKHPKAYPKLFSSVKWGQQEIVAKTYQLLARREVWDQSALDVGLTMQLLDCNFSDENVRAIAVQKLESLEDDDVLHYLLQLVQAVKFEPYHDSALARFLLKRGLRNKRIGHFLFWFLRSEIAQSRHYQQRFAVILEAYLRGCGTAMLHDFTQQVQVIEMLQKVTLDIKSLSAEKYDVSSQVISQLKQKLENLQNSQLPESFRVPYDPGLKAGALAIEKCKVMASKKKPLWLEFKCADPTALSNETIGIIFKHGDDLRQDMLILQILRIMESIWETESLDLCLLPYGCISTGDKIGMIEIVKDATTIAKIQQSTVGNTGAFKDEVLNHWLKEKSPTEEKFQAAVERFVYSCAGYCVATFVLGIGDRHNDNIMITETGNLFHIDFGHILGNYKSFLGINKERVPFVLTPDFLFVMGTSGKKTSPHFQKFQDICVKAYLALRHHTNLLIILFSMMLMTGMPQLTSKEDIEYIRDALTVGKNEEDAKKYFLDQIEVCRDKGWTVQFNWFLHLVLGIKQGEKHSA
Procedure: as §1, §2, §3, §4, §5, §6, §7, §8, §9, §10, §11, §12, §13, §14

PI3Kα = target: T1, PI3Kα (Homo sapiens, UniProt P42336); experiment: Ki for PI3Kα (Promega ADP-Glo Lipid Kinase System)
T1 construct: purchased Promega V1721
T1 sequence (P42336 whole entry): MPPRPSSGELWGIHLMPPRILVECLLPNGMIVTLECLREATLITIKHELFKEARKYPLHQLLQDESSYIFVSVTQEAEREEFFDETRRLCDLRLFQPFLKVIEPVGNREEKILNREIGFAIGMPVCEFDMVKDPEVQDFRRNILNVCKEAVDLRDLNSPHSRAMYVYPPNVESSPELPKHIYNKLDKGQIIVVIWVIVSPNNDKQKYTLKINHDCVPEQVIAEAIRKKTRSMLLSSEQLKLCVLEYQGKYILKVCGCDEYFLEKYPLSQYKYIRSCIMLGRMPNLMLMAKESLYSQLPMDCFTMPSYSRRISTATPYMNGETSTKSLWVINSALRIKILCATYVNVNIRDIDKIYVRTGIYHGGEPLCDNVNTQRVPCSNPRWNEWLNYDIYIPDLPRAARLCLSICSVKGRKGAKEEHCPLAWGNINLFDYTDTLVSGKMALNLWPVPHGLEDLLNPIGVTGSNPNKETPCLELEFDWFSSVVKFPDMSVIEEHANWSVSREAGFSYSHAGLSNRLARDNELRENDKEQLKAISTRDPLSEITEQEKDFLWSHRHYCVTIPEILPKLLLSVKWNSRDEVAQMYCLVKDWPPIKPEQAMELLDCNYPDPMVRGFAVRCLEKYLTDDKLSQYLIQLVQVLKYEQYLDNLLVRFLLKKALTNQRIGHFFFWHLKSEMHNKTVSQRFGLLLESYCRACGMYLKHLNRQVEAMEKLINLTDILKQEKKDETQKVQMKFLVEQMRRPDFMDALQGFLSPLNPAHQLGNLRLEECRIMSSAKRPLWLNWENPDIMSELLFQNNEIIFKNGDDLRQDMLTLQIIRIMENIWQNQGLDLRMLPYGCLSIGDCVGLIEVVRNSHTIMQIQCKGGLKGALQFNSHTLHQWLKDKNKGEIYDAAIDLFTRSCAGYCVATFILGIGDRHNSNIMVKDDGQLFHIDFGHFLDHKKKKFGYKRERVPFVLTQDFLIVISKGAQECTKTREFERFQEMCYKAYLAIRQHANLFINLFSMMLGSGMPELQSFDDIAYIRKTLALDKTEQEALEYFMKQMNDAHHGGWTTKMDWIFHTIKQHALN
T1 sequence (P27986 whole entry partner): as the sequence (P27986 whole entry partner) above
Source text: The Promega V1721 ADP-Glo Lipid Kinase System was used as per the Promega technical manual. The analysis was done in triplicate on three 96-well plates. The plates were read and the data were processed with GraphPad Prism 7.0.

[1] = Exp. 1, read-out: IC50 p110alpha Exp. 1
[2] = Exp. 2, read-out: IC50 p110alpha Exp. 2
[3] = Exp. 1, read-out: IC50 p110beta Exp. 1
[4] = Exp. 2, read-out: IC50 p110beta Exp. 2
[5] = Exp. 1, read-out: IC50 p110delta Exp. 1
[6] = Exp. 2, read-out: IC50 p110delta Exp. 2
[7] = Exp. 1, read-out: IC50 p120gamma Exp. 1
[8] = Exp. 2, read-out: IC50 p120gamma Exp. 2

With O=S(=O)(Nc1cncc(-c2ccc3ncc(-c4ncccn4)n3c2)c1)c1ccccc1 [TK2-94p3-47 (6d), N-(5-(3-(pyrimidin-2-yl)imidazo[1,2-a]pyridin-6-yl)pyridin-3-yl)benzenesulfonamide] the IC50 (p110alpha; [1]) was 0.0089 µM, the IC50 (p110alpha; [2]) was 0.0115 µM and the IC50 (p110beta; [3]) was 0.0276 µM. For the same molecule, the IC50 (p110beta; [4]) was 0.0449 µM, the IC50 (p110delta; [5]) was 0.0108 µM and the IC50 (p110delta; [6]) was 0.0085 µM. For the same molecule, the IC50 (p120gamma; [7]) was 0.0075 µM and the IC50 (p120gamma; [8]) was 0.0085 µM.

CN(C)c1ncc(-c2cnc3ccc(-c4cncc(NS(=O)(=O)c5ccccc5)c4)cn23)cn1 [drawing 16] was tested, and the Ki (PI3Kα) was 0.244 µM.

O=S(=O)(Nc1cncc(-c2ccc3ncc(-c4cnc5ccnn5c4)n3c2)c1)c1ccccc1 [drawing 18] gave a Ki (PI3Kα) of 0.329 µM.

Molecule CN(C)c1ncc(-c2cnc3ccc(-c4cncc(NS(=O)(=O)c5ccccc5)c4)cn23)cn1 [TK2-71pZD2-86 (6a), N-(5-(3-(2-(dimethylamino)pyrimidin-5-yl)imidazo[1,2-a]pyridin-6-yl)pyridin-3-yl)benzenesulfonamide] has an IC50 (p110alpha; [1]) of 0.0209 µM, an IC50 (p110alpha; [2]) of 0.0337 µM and an IC50 (p110beta; [3]) of 0.19 µM. For the same molecule, the IC50 (p110beta; [4]) was 0.184 µM, the IC50 (p110delta; [5]) was 0.0335 µM and the IC50 (p110delta; [6]) was 0.0342 µM. It also gave an IC50 (p120gamma; [7]) of 0.0186 µM and an IC50 (p120gamma; [8]) of 0.0342 µM.

COc1ncc(-c2cnc3ccc(-c4cncc(NS(=O)(=O)c5ccccc5)c4)cn23)cn1 [TK2-67p3-36 (6b), N-(5-(3-(2-methoxypyrimidin-5-yl)imidazo[1,2-a]pyridin-6-yl)pyridin-3-yl)benzenesulfonamide] was tested, and the IC50 (p110alpha; [1]) was 0.0117 µM, the IC50 (p110alpha; [2]) was 0.0127 µM and the IC50 (p110beta; [3]) was 0.167 µM. It also gave an IC50 (p110beta; [4]) of 0.187 µM, an IC50 (p110delta; [5]) of 0.0335 µM and an IC50 (p110delta; [6]) of 0.0277 µM. The IC50 (p120gamma; [7]) was 0.0149 µM and the IC50 (p120gamma; [8]) was 0.0277 µM.

Work on CCc1nc(-c2cnc3ccc(-c4cncc(NS(=O)(=O)c5ccccc5)c4)cn23)no1 yielded a Ki (PI3Kα) of 0.043 µM.

With COc1ncc(-c2cnc3ccc(-c4cncc(NS(=O)(=O)c5ccccc5)c4)cn23)cn1 [drawing 17] the Ki (PI3Kα) was 0.07 µM.

O=S(=O)(Nc1cncc(-c2ccc3ncc(-c4cnc5ccnn5c4)n3c2)c1)c1ccccc1 [TK2-130p3-37 (6c), N-(5-(3-(pyrazolo[1,5-a]pyrimidin-6-yl)imidazo[1,2-a]pyridin-6-yl)pyridin-3-yl)benzenesulfonamide] gave an IC50 (p110alpha; [1]) of 0.051 µM, an IC50 (p110alpha; [2]) of 0.0613 µM and an IC50 (p110beta; [3]) of 0.419 µM. For the same molecule, the IC50 (p110beta; [4]) was 0.479 µM, the IC50 (p110delta; [5]) was 0.0341 µM and the IC50 (p110delta; [6]) was 0.031 µM. It also gave an IC50 (p120gamma; [7]) of 0.0502 µM and an IC50 (p120gamma; [8]) of 0.031 µM.

Nc1ccc(-c2cccc3c(=O)cc(N4CCOCC4)oc23)cc1 [PI 828, reference compound] showed an IC50 (p110alpha; [1]) of 0.351 µM, an IC50 (p110alpha; [2]) of 0.349 µM and an IC50 (p110beta; [3]) of 0.244 µM. For the same molecule, the IC50 (p110beta; [4]) was 0.242 µM, the IC50 (p110delta; [5]) was 0.308 µM and the IC50 (p110delta; [6]) was 0.203 µM. The IC50 (p120gamma; [7]) was 1.92 µM and the IC50 (p120gamma; [8]) was 2.14 µM.

O=S(=O)(Nc1cncc(-c2ccc3ncc(-c4ncccn4)n3c2)c1)c1ccccc1 [drawing 19] gave a Ki (PI3Kα) of 0.1 µM.
